In article PMC8038501, “Bioactivity-Guided Isolation of Phytochemicals from Vaccinium dunalianum Wight and Their Antioxidant and Enzyme Inhibitory Activities” (Molecules, 2021):
Marks after values point to notes of the source that are not given here.

Experiments:
α-glucosidase = α-glucosidase (Saccharomyces cerevisiae, UniProt P53341); experiment: α-glucosidase inhibitory assay (PNPG substrate); assay type: biochemical
Description: The α-glucosidase inhibitory assay was performed as previously described with slight modifications. A 50 µL sample (20, 50, 100, 200, 400, 600 µg/mL) solution was added to the mixture of the α-glucosidase solution, phosphate buffer (100 µL, pH 6.8), and 50 µL of 10 mM PNPG in a 96-well microplate. Subsequently, the reaction mixture was incubated for 15 min at 37 °C. Then, sodium carbonate (50 µL, 0.2 M) was added to terminate the reaction. A blank was prepared for each sample without enzyme solution to correct the background absorbance (control). The absorbance (A) of the reaction mixture was measured at 405 nm by using a SpectraMax M5 microplate reader (Molecular Devices, Sunnyvale, CA, USA). The inhibitory percentage was determined as follows:Inhibition (%) = [(Acontrol − Asample)/Acontrol] × 100(1)

[1] = target: T1, porcine pancreatic lipase (Sus scrofa, UniProt P00591); experiment: pancreatic lipase inhibitory assay (p-nitrophenyl laurate substrate); assay type: biochemical; conditions: mean ± SD, three replicates; read-out: Enzyme Inhibition IC50 Pancreatic Lipase (converted)
T1 construct: purchased Sigma-Aldrich (Shanghai, China)
T1 sequence (P00591 1-450): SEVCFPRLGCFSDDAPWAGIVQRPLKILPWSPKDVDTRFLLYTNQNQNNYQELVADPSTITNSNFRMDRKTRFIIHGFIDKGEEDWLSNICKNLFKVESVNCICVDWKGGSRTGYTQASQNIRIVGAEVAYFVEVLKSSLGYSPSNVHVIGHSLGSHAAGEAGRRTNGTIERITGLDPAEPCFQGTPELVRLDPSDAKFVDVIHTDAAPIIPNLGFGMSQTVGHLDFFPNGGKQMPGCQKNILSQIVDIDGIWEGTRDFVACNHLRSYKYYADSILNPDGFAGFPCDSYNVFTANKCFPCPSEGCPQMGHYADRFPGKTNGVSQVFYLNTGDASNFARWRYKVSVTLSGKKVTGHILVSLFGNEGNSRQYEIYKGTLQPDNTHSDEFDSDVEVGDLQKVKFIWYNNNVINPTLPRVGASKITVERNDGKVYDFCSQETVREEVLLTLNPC
Description: The pancreatic lipase inhibitory assay was conducted as previously described with some modifications. First, the porcine pancreatic lipase solution was centrifuged to collect the supernatant enzyme at 4000 g for 5 min. The substrate solution was prepared with p-nitrophenyl laurate dissolved in 5 mM sodium acetate (1:100 m/v) and Triton X-100 (1:100 v/v). The substrate solution was placed in boiling water for 2 min to fully dissolve, and then cooled down to room temperature for the enzymatic assay. The sample was dissolved in DMSO (<5% in the final reaction reagents) and diluted with 100 mM Tris-buffer (pH 8.2). Samples of 50, 100, 200, 400, 600, and 800 µg/mL were prepared. Orlistat was used as a positive control. In the enzymatic assay, the test samples (100 µL) were mixed with Tris buffer (400 µL), substrate solution (350 µL), and pancreatic lipase (150 µL). The mixture was then incubated at 37 °C for 2 h and centrifugated at 4000 g for 3 min. The absorbance of the reaction mixture was measured at 400 nm by using a SpectraMax M5 microplate reader. The percent inhibition of pancreatic lipase activity was calculated by Equation (1).

[2] = DPPH free-radical scavenging assay; conditions: for Antioxidant Activity DPPH: mean ± SD, three replicates
Description: The DPPH free radical scavenging activity was carried out by the method previously described. Briefly, 2 mL of DPPH solution (0.1 mmol/L) was mixed with 0.5 mL of sample solutions or Trolox solution (100 μg/mL in methanol). Then, the mixture was incubated for 30 min in the dark at room temperature. Absorbance of the mixture was measured at 517 nm using a SpectraMax M5 microplate reader. DPPH radical scavenging activity of each extract was expressed as nmol Trolox equivalent (TE) per mg of extract (nmol TE/mg extract).

[3] = Ferric reducing/antioxidant power (FRAP) assay; conditions: for Antioxidant Activity FRAP: mean ± SD, three replicates
Description: The FRAP assay was conducted according to the procedure reported with slight modifications. The FRAP reagent was freshly prepared with 300 mM acetate buffer (pH 3.6), 10 mM TPTZ (2,4,6-tripyridyl-s-triazine), and 20 mM FeCl3-6H2O (10:1:1, v/v)]. A 0.5 mL of each sample (100 μg/mL) was mixed with 4.5 mL freshly prepared FRAP reagent. Then, the reaction mixture was incubated at 37 °C in the dark for 10 min. The absorbance of the mixture was recorded at 593 nm against a blank that was prepared using distilled water. Trolox was used as a control. The FRAP values were expressed as nmol Trolox equivalent (TE) per mg of extract (nmol TE/mg extract).

[4] = ABTS radical scavenging assay; conditions: for Antioxidant Activity ABTS: mean ± SD, three replicates
Description: The ABTS assay was performed according to the procedure described earlier. Briefly, 7 mM ABTS was added to 2.5 mM […] and the mixture was allowed to stand in the dark at room temperature for 16 h to obtain the ABTS radical solution. The ABTS solution was diluted with methanol with an absorbance of 0.70 ± 0.02 at 734 nm. After adding the 25 μL extract (100 μg/mL in methanol) to 200 μL ABTS solution, the absorbance was measured after 6 min at 734 nm by using a SpectraMax M5 microplate reader. Results were expressed as nmol Trolox equivalent (TE) per mg of extract (nmol TE/mg extract).

ɑ-glucosidase = system: ɑ-glucosidase; parameters: method as in PMID 28832228; conditions: cited from earlier work
[5] = cited from earlier work

Chain of α-glucosidase (P53341 whole entry): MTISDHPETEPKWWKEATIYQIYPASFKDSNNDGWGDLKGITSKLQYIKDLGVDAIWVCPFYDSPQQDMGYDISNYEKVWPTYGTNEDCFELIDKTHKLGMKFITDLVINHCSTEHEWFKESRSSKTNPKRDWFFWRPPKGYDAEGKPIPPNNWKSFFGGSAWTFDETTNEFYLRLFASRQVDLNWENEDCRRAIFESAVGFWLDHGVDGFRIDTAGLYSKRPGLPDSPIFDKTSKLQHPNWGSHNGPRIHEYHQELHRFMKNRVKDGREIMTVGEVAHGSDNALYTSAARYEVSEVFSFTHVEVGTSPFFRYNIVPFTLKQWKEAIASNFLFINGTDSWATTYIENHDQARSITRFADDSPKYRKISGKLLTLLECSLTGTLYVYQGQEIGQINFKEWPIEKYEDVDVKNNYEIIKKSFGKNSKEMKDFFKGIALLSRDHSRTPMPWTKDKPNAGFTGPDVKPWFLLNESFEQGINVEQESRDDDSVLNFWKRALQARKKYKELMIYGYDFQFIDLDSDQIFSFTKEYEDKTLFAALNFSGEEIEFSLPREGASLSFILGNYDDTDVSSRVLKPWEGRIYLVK

Structure (SMILES) | α-glucosidase inhibition (in words) (α-glucosidase) | IC50 [1] [mM] | Antioxidant Activity DPPH [2] | Antioxidant Activity FRAP [3] | Antioxidant Activity ABTS [4] | ɑ-glucosidase inhibitory activities (reported) (ɑ-glucosidase) | effect on antioxidant activity (reported) [5] | DPPH ([2]; unit in section 2.5) [nmol TE/g extract] | FRAP ([3]; unit in section 2.5) [nmol TE/g extract] | ABTS ([4]; unit in section 2.5) [nmol TE/g extract]
CCOC(=O)/C=C/c1ccc(O)c(O)c1 [Compound 6, Caffeic acid ethyl ester] | relatively weak inhibitory activity | 1.24 | 0.42 ± 0.03 ^e nmol Trolox equivalent/mg extract | 0.76 ± 0.01 ^d nmol Trolox equivalent/mg extract | 4.16 ± 0.25 ^b nmol Trolox equivalent/mg extract | good ɑ-glucosidase inhibitory activities |  |  |  | 
O=C(O)/C=C/c1ccc(O)c(O)c1 [Compound 3, Caffeic acid] |  | 1.31 | 0.39 ± 0.05 ^de nmol Trolox equivalent/mg extract | 0.85 ± 0.01 ^ef nmol Trolox equivalent/mg extract | 3.86 ± 0.48 ^b nmol Trolox equivalent/mg extract |  | positive effect on antioxidant activity |  |  | 
COC(=O)/C=C/c1ccc(O)c(O)c1 [Compound 4, Caffeic acid methyl ester] |  | 1.38 | 0.37 ± 0.01^d nmol Trolox equivalent/mg extract | 0.82 ± 0.01 ^e nmol Trolox equivalent/mg extract | 3.10 ± 1.07 ^b nmol Trolox equivalent/mg extract | good ɑ-glucosidase inhibitory activities |  |  |  | 
O=C(/C=C/c1ccc(O)cc1)OC[C@H]1O[C@@H](Oc2ccc(O)cc2)[C@H](O)[C@@H](O)[C@@H]1O [Compound 8, Robustaside A] | relatively weak inhibitory activity | 0.741 | 0.41 ± 0.06 ^e nmol Trolox equivalent/mg extract | 0.49 ± 0.01 ^b nmol Trolox equivalent/mg extract | 4.71 ± 0.23 ^c nmol Trolox equivalent/mg extract |  |  |  |  | 
O=C(/C=C/c1ccc(O)c(O)c1)OC[C@H]1O[C@@H](Oc2ccc(O)cc2)[C@H](O)[C@@H](O)[C@@H]1O [Compound 7, 6′-O-Caffeoylarbutin] |  | 0.225 | 1.21 ± 0.43 ^c nmol Trolox equivalent/mg extract | 0.87 ± 0.01 ^f nmol Trolox equivalent/mg extract | 16.96 ± 0.95 ^j nmol Trolox equivalent/mg extract |  |  | 1.21 ± 0.43 | 0.87 ± 0.01 | 16.96 ± 0.95
OC[C@H]1O[C@@H](Oc2ccc(O)cc2)[C@H](O)[C@@H](O)[C@@H]1O [Compound 1, Arbutin] | relatively weak inhibitory activity | 1.29 | 0.45 ± 0.02 ^e nmol Trolox equivalent/mg extract | 0.76 ± 0.01 ^d nmol Trolox equivalent/mg extract | 8.38 ± 3.74 ^efg nmol Trolox equivalent/mg extract |  |  |  |  | 
O=c1c(O[C@@H]2O[C@H](CO)[C@@H](O)[C@H](O)[C@H]2O)c(-c2ccc(O)cc2)oc2cc(O)cc(O)c12 [Compound 9, Kaempferol-3-O-β-D-glucopyranoside] | relatively weak inhibitory activity | 0.778 | 0.35 ± 0.01 ^cd nmol Trolox equivalent/mg extract |  | 6.38 ± 0.34 ^e nmol Trolox equivalent/mg extract |  | positive effect on antioxidant activity |  |  | 
O=C(O)c1ccc(O)cc1 [Compound 10, p-Hydroxybenzoic acid] | relatively weak inhibitory activity | 2.22 | 1.12 ± 0.23 ^h nmol Trolox equivalent/mg extract | 0.87 ± 0.01 ^f nmol Trolox equivalent/mg extract |  |  |  |  |  | 
O=C(/C=C/c1ccc(O)c(O)c1)OC[C@H]1O[C@@H](O)[C@H](O)[C@@H](O)[C@@H]1O [Compound 2, 6-O-E-Caffeoyl-D-glucopyranose] |  | 0.303 | 1.05 ± 0.11 ^h nmol Trolox equivalent/mg extract | 0.84 ± 0.01 ^e,f nmol Trolox equivalent/mg extract | 15.93 ± 1.65 ^ij nmol Trolox equivalent/mg extract |  |  |  |  | 
O=c1c(OC2O[C@H](CO)[C@@H](O)[C@@H]2O)c(-c2ccc(O)c(O)c2)oc2cc(O)cc(O)c12 (stereo in doubt) [Compound 5, Quercetin-3-O-arabinofuranoside] | relatively weak inhibitory activity | 0.759 | 0.81 ± 0.17 ^h nmol Trolox equivalent/mg extract |  |  |  | positive effect on antioxidant activity |  |  | 
